# Measurements published in patent US4684647A, “Anti-bacterial pyrido-benzothiazine derivative and pharmaceutical composition therefor” (priority 1984, dated 1987).
# Columns and labels:
# Escherichia coli (981) = assay: MIC in agar, Escherichia coli (981); format: cell-based; conditions: Isosensitest agar, 10^4 CFU, 24 h, 37° C.
# Description: (§1) The antibacterial activity (minimum inhibiting concentration, MIC) of the compounds according to the invention has been determined in agar, by adding the compound under evaluation at concentrations of from 0.1 to 100 meg/ml by means of a "multipoint inoculator" (Denley Techn. Ltd., England); the medium used was Isosensitest agar (Oxoid); the bacterial inoculate was 10^4 colony forming unity (CFU) per inoculation point. The reading of the results was done after 24 hour-incubation in thermostat at 37° C.
# (§2) The MIC was defined as the lowest concentration of chemotherapeutic agent still capable of totally inhibiting the growth of bacteria, as detected from a lack of colony development in the inoculation point.
# (§3) The microorganisms used for evaluating the activity of the specific compounds have been: Escherichia coli, Klebsiella P., Enterobacter, Serratia, Citrobacter, Proteus (+), Salmonella, Pseudomonas, Staphylococcus. All the compounds according to the present invention are provided with antibacterial activity against one or more microorganism(s) among those above mentioned. Some of such compounds are absorbed after having been administered orally to the animals, and are particularly useful as disinfectants of the urinary tract in that they are excreted in a high percentage (50-70% over 24 hours after the administration of 50 mg/kg per os) as such, and in metabolic active form, through the urine.
# A = Escherichia coli (981)
# Pseudomonas aeruginosa = assay: MIC in agar, Pseudomonas aeruginosa; format: cell-based; conditions: Isosensitest agar, 10^4 CFU, 24 h, 37° C., read-out: MIC, B = Pseudomonas aeruginosa
# Description: as §1, §2, §3
# B = P udomonas aeruginosa
# Staphylococcus aureus = assay: MIC in agar, Staphylococcus aureus; format: cell-based; conditions: Isosensitest agar, 10^4 CFU, 24 h, 37° C.
# Description: as §1, §2, §3
# [1] = tested on: Proteus Morgani (indole +); assay: MIC in agar, Proteus Morgani (indole +); format: cell-based; conditions: Isosensitest agar, 10^4 CFU, 24 h, 37° C.; read-out: MIC, D = Proteus Morgani (indole +)
# Description: as §1, §2, §3
# D = Proteus Morgani (indole +)
# Klebsiella pneumoniae = assay: MIC in agar, Klebsiella pneumoniae; format: cell-based; conditions: Isosensitest agar, 10^4 CFU, 24 h, 37° C., read-out: MIC, E = Klebsiella pneumoniae
# Description: as §1, §2, §3
# E = Klebsiella pneumoniae
# Enterobacter = assay: MIC in agar, Enterobacter; format: cell-based; conditions: Isosensitest agar, 10^4 CFU, 24 h, 37° C., read-out: MIC, F = Enterobacter
# Description: as §1, §2, §3
# Citrobacter = assay: MIC in agar, Citrobacter; format: cell-based; conditions: Isosensitest agar, 10^4 CFU, 24 h, 37° C., read-out: MIC, G = Citrobacter
# Description: as §1, §2, §3
# bacteria [2] = assay: antibacterial activity in vitro, overall; format: cell-based; conditions: in vitro, Table 1
# Description: as §1, §2, §3
# [3] = plasma levels by HPLC after intraperitoneal and oral administration to rats; format: in vivo; conditions: rat; for concentration at 0.5 h: 0.50 h; for concentration at 0.5 h / concentration at 1 h / concentration at 2 h / concentration at 4 h / concentration at 8 h / concentration at 15 h: read-out: Plasma level
# Description: We give hereinafter in Table 2 the haematic levels of compound (h) as measured in plasma by HPLC. Each value is the average of three tested rats.
# More precisely in FIG. 1 the plasma levels in rats versus the time, are reported, after i.p. administration of 10 mg/kg and 25 mg/kg of compound (h), while in FIG. 2 the plasma levels are reported of compound (h) in rats, versus the time, after oral administration of 25, 50 and 100 mg/kg of said compound.
# [4] = tissue levels by HPLC after oral administration to rats; format: in vivo; conditions: rat; for concentration at 0.5 h / concentration at 1 h / concentration at 2 h / concentration at 4 h / concentration at 8 h / concentration at 15 h: 50 mg/kg oral; for Cmax: po
# in vivo = conditions: rat, po
# Description: In Table 4 the percentage of urinary excretion of compound (h) is reported, as measured in the 24 hours successive to oral administration of the same to rats.
# Each value is the average of three tested rats.
# The tests have been performed in comparison with Ofloxacin, a well known antibacterial compound. The amount of excreted product has been determined with microbiological analysis, by using Klebsiella Pneumoniae as the testing microorganism.
# [5] = preliminary pharmacokinetic tests in dogs, oral; format: in vivo; conditions: dog, 20 mg/kg per os
# Excerpt: Preliminary tests performed in dogs with the compound (h) have given still better results than the tests performed in rats.
# bacteria [6] = assay: antibacterial characteristics tested in vivo
# [7] = heart, read-out: Tissue level, heart
# [8] = kidney, read-out: Tissue level, kidney
# [9] = liver, read-out: Tissue level, liver
# [10] = plasma, read-out: Tissue levels table, plasma
smiles,measurement,setting,value
"CN1CCN(c2c(F)cc3c(=O)c(C(=O)O)cn4c3c2SCC4)CC1 [Compound (h), 9-Fluoro-10[N-(4'-methyl)-piperazinyl]-7-oxo-2,3-dihydro-7H-pyrido[1,2,3 de][1,4]benzothiazine-6-carboxylic acid]",MIC,Escherichia coli (981),0.78 µg/mL
same,MIC,Pseudomonas aeruginosa,> 50 µg/mL
same,MIC,Staphylococcus aureus,0.78 µg/mL
same,MIC,[1],1.56 µg/mL
same,MIC,Klebsiella pneumoniae,< 0.39 µg/mL
same,MIC,Enterobacter,< 0.39 µg/mL
same,MIC,Citrobacter,1.56 µg/mL
same,anti-bacterial activity in vitro,bacteria [2],very good and comparable anti-bacterial activity
same,concentration at 0.5 h,"[3]; plasma, ip, 10 mg/kg i.p.",2700 ng/mL
same,concentration at 1 h,"[3]; plasma, ip, 10 mg/kg i.p.",2530 ng/mL
same,concentration at 2 h,"[3]; plasma, ip, 10 mg/kg i.p.",2170 ng/mL
same,concentration at 4 h,"[3]; plasma, ip, 10 mg/kg i.p.",1830 ng/mL
same,concentration at 8 h,"[3]; plasma, ip, 10 mg/kg i.p.",1630 ng/mL
same,concentration at 0.5 h,"[3]; plasma, ip, 25 mg/kg i.p.",8350 ng/mL
same,concentration at 1 h,"[3]; plasma, ip, 25 mg/kg i.p.",6290 ng/mL
same,concentration at 2 h,"[3]; plasma, ip, 25 mg/kg i.p.",6440 ng/mL
same,concentration at 4 h,"[3]; plasma, ip, 25 mg/kg i.p.",5010 ng/mL
same,concentration at 8 h,"[3]; plasma, ip, 25 mg/kg i.p.",3720 ng/mL
same,concentration at 0.5 h,"[3]; plasma, po, 25 mg/kg os",5330 ng/mL
same,concentration at 1 h,"[3]; plasma, po, 25 mg/kg os",7300 ng/mL
same,concentration at 2 h,"[3]; plasma, po, 25 mg/kg os",5670 ng/mL
same,concentration at 4 h,"[3]; plasma, po, 25 mg/kg os",3600 ng/mL
same,concentration at 8 h,"[3]; plasma, po, 25 mg/kg os",3270 ng/mL
same,concentration at 15 h,"[3]; plasma, po, 25 mg/kg os",2730 ng/mL
same,concentration at 0.5 h,"[3]; plasma, po, 50 mg/kg os",8750 ng/mL
same,concentration at 1 h,"[3]; plasma, po, 50 mg/kg os",10100 ng/mL
same,concentration at 2 h,"[3]; plasma, po, 50 mg/kg os",9950 ng/mL
same,concentration at 4 h,"[3]; plasma, po, 50 mg/kg os",6370 ng/mL
same,concentration at 8 h,"[3]; plasma, po, 50 mg/kg os",4950 ng/mL
same,concentration at 15 h,"[3]; plasma, po, 50 mg/kg os",4290 ng/mL
same,concentration at 0.5 h,"[3]; plasma, po, 100 mg/kg os",12500 ng/mL
same,concentration at 1 h,"[3]; plasma, po, 100 mg/kg os",20600 ng/mL
same,concentration at 2 h,"[3]; plasma, po, 100 mg/kg os",22200 ng/mL
same,concentration at 4 h,"[3]; plasma, po, 100 mg/kg os",15900 ng/mL
same,concentration at 8 h,"[3]; plasma, po, 100 mg/kg os",13000 ng/mL
same,concentration at 15 h,"[3]; plasma, po, 100 mg/kg os",6220 ng/mL
same,half-life,"[3]; plasma, deduced from Table 2, read-out: half-life time (converted)",10 h
same,absorption per os and i.p.,[3],quickly absorbed
same,plasma levels induced,[3],high and long-lasting levels both in the plasma and in the various organs
same,concentration at 0.5 h,[4]; [7],20000 ng/mL
same,concentration at 1 h,[4]; [7],31400 ng/mL
same,concentration at 2 h,[4]; [7],21000 ng/mL
same,concentration at 4 h,[4]; [7],18100 ng/mL
same,concentration at 8 h,[4]; [7],9930 ng/mL
same,concentration at 15 h,[4]; [7],5350 ng/mL
same,concentration at 0.5 h,[4]; [8],32600 ng/mL
same,concentration at 1 h,[4]; [8],61200 ng/mL
same,concentration at 2 h,[4]; [8],50600 ng/mL
same,concentration at 4 h,[4]; [8],42400 ng/mL
same,concentration at 8 h,[4]; [8],17800 ng/mL
same,concentration at 15 h,[4]; [8],7950 ng/mL
same,concentration at 0.5 h,[4]; [9],63500 ng/mL
same,concentration at 1 h,[4]; [9],80400 ng/mL
same,concentration at 2 h,[4]; [9],58100 ng/mL
same,concentration at 4 h,[4]; [9],34100 ng/mL
same,concentration at 8 h,[4]; [9],21600 ng/mL
same,concentration at 15 h,[4]; [9],11300 ng/mL
same,concentration at 0.5 h,[4]; [10],8750 ng/mL
same,concentration at 1 h,[4]; [10],10100 ng/mL
same,concentration at 2 h,[4]; [10],9950 ng/mL
same,concentration at 4 h,[4]; [10],6370 ng/mL
same,concentration at 8 h,[4]; [10],4950 ng/mL
same,concentration at 15 h,[4]; [10],4290 ng/mL
same,Cmax,"[4]; heart, read-out: mean tissue level at the moment of peak, heart",31400 ng/mL
same,Cmax,"[4]; liver, read-out: mean tissue level at the moment of peak, liver (first of two values printed for liver)",61200 ng/mL
same,Cmax,"[4]; liver, read-out: mean tissue level at the moment of peak, liver (second of two values printed for liver)",80400 ng/mL
same,presence in brain,[4]; oral,No presence
same,Kp,"[4]; oral, various organs, read-out: ratio of organ concentration with respect to the concentration in plasma",> 3
same,Cmax,"[4]; plasma, read-out: mean level at the moment of peak, plasma",10100 ng/mL
same,dose excreted at 24 h,in vivo; 20 mg/kg,77.3 ± 6.81%
same,dose excreted at 24 h,in vivo; 50 mg/kg,73 ± 4.58%
same,plasma levels compared with rats,[5],sharply higher plasma levels
same,half-life,"[5]; plasma, po",24 h
same,Cmax,"[5]; plasma, po, read-out: peak plasma level",8000 ng/mL
same,in vivo antibacterial characteristics,bacteria [6],systemic antibacterial compound having long-lasting activity
